Measured values reported in ChEMBL document CHEMBL4715882, “Evaluation of pyrrolidine-based analog of jaspine B as potential SphK1 inhibitors against rheumatoid arthritis” (Bioorg Med Chem Lett, 2021).
One block for each compound: values may come before it. The source made the active and inactive calls. The calls are words filed in the database; no cut-off is given here.

Assays:
[1] = Antiinflammatory activity against LPS-induced HFLS-RA cells; type: functional, cell-based, Homo sapiens
Rattus norvegicus [2] = assay: Antiarthritic activity in CFA-induced rheumatoid arthritis Wistar rat model assessed as reduction in arthritis index at 3 mg/kg, ig for 28 days; type: functional, organism-based; details: time 28.0 day
Rattus norvegicus [3] = assay: Antiarthritic activity in CFA-induced rheumatoid arthritis Wistar rat model assessed as reduction in foot swelling at 3 mg/kg, ig measured after 21 to 28 days; type: functional, organism-based; details: time 21-28 day
Rattus norvegicus [4] = assay: Antiarthritic activity in CFA-induced rheumatoid arthritis Wistar rat model assessed as increase in weight at 3 mg/kg, ig measured after 14 to 28 days; type: functional, organism-based; details: time 14-28 day
Rattus norvegicus [5] = assay: Antiinflammatory activity against CFA-induced rheumatoid arthritis Wistar rat model assessed as decrease in IL-1beta level at 3 mg/kg, ig measured after 28 days; type: functional, organism-based; details: time 28.0 day
Rattus norvegicus [6] = assay: Antiinflammatory activity against CFA-induced rheumatoid arthritis Wistar rat model assessed as decrease in TNFalpha level at 3 mg/kg, ig measured after 28 days; type: functional, organism-based; details: time 28.0 day
Rattus norvegicus [7] = assay: Antiinflammatory activity against CFA-induced rheumatoid arthritis Wistar rat model assessed as decrease in IL6 level at 3 mg/kg, ig measured after 28 days; type: functional, organism-based; details: time 28.0 day
Rattus norvegicus [8] = assay: Antiinflammatory activity against CFA-induced rheumatoid arthritis Wistar rat model assessed as decrease in spleen index at 3 mg/kg, ig measured after 28 days; type: functional, organism-based; details: time 28.0 day
Rattus norvegicus [9] = assay: Antiinflammatory activity against CFA-induced rheumatoid arthritis Wistar rat model assessed as decrease in synovial hyperplasia at 3 mg/kg, ig after 28 days; type: functional, organism-based; details: time 28.0 day
Rattus norvegicus [10] = assay: Antiinflammatory activity against CFA-induced rheumatoid arthritis Wistar rat model assessed as decrease in cell infiltration at 3 mg/kg, ig after 28 days; type: functional, organism-based; details: time 28.0 day
Rattus norvegicus [11] = assay: Antiinflammatory activity against CFA-induced rheumatoid arthritis Wistar rat model assessed as decrease in cartilage damage at 3 mg/kg, ig after 28 days; type: functional, organism-based; details: time 28.0 day
Sphingosine kinase 1 = Sphingosine kinase 1 (Homo sapiens, UniProt Q9NYA1); assay: Inhibition of SphK1 (unknown origin)
Sphingosine kinase 2 = biological target: T1, Sphingosine kinase 2 (Homo sapiens, UniProt Q9NRA0); assay: Inhibition of SphK2 (unknown origin)
T1 sequence (Q9NRA0 whole entry): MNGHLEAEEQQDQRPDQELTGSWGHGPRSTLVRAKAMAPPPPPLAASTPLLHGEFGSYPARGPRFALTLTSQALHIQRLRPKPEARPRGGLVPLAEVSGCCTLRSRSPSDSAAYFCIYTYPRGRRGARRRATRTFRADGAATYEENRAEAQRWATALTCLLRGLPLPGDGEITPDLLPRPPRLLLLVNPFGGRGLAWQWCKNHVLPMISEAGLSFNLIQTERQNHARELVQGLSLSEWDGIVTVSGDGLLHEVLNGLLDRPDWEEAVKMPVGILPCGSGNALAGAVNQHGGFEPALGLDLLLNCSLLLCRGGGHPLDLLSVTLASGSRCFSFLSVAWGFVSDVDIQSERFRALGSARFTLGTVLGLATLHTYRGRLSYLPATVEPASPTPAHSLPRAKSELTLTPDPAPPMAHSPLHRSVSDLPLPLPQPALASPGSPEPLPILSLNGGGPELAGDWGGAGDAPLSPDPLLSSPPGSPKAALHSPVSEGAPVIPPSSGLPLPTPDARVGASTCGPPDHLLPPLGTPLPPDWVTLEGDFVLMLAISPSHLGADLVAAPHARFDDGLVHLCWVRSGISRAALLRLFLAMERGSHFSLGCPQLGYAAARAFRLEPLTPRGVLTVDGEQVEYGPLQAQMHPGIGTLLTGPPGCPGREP

Rattus norvegicus [12] = assay: Antiinflammatory activity against CFA-induced rheumatoid arthritis Wistar rat model assessed as decrease in IL-1beta level at 30 mg/kg, ig measured after 28 days; type: functional, organism-based; details: time 28.0 day
HFLS-RA [13] = assay: Antiinflammatory activity against LPS-induced HFLS-RA cells assessed as reduction in IL-1alpha expression; type: functional, cell-based; details: Homo sapiens, dose 5-20 µM
HFLS-RA [14] = assay: Antiinflammatory activity against LPS-induced HFLS-RA cells assessed as reduction in IL-1beta expression; type: functional, cell-based; details: Homo sapiens, dose 5-20 µM
HFLS-RA [15] = assay: Antiinflammatory activity against LPS-induced HFLS-RA cells assessed as reduction in IL-6 expression; type: functional, cell-based; details: Homo sapiens, dose 5-20 µM
HFLS-RA [16] = assay: Antiinflammatory activity against LPS-induced HFLS-RA cells assessed as reduction in TNF-alpha expression; type: functional, cell-based; details: Homo sapiens, dose 5-20 µM
Rattus norvegicus [17] = assay: Antiarthritic activity in CFA-induced rheumatoid arthritis Wistar rat model assessed as reduction in arthritis index at 30 mg/kg, ig for 28 days; type: functional, organism-based; details: time 28.0 day
Rattus norvegicus [18] = assay: Antiarthritic activity in CFA-induced rheumatoid arthritis Wistar rat model assessed as reduction in foot swelling at 30 mg/kg, ig measured after 21 to 28 days; type: functional, organism-based; details: time 21-28 day
Rattus norvegicus [19] = assay: Antiarthritic activity in CFA-induced rheumatoid arthritis Wistar rat model assessed as increase in weight at 30 mg/kg, ig measured after 14 to 28 days; type: functional, organism-based; details: time 14-28 day
Rattus norvegicus [20] = assay: Antiinflammatory activity against CFA-induced rheumatoid arthritis Wistar rat model assessed as decrease in cell infiltration at 30 mg/kg, ig after 28 days; type: functional, organism-based; details: time 28.0 day
Rattus norvegicus [21] = assay: Antiinflammatory activity against CFA-induced rheumatoid arthritis Wistar rat model assessed as decrease in TNFalpha level at 30 mg/kg, ig measured after 28 days; type: functional, organism-based; details: time 28.0 day
Rattus norvegicus [22] = assay: Antiinflammatory activity against CFA-induced rheumatoid arthritis Wistar rat model assessed as decrease in IL6 level at 30 mg/kg, ig measured after 28 days; type: functional, organism-based; details: time 28.0 day
Rattus norvegicus [23] = assay: Antiinflammatory activity against CFA-induced rheumatoid arthritis Wistar rat model assessed as decrease in spleen index at 30 mg/kg, ig measured after 28 days; type: functional, organism-based; details: time 28.0 day
Rattus norvegicus [24] = assay: Antiinflammatory activity against CFA-induced rheumatoid arthritis Wistar rat model assessed as decrease in paw swelling at 30 mg/kg, ig after 28 days; type: functional, organism-based; details: time 28.0 day
Rattus norvegicus [25] = assay: Antiinflammatory activity against CFA-induced rheumatoid arthritis Wistar rat model assessed as decrease in synovial hyperplasia at 30 mg/kg, ig after 28 days; type: functional, organism-based; details: time 28.0 day
Rattus norvegicus [26] = assay: Antiinflammatory activity against CFA-induced rheumatoid arthritis Wistar rat model assessed as decrease in cartilage damage at 30 mg/kg, ig after 28 days; type: functional, organism-based; details: time 28.0 day

Chain of Sphingosine kinase 1 (Q9NYA1 whole entry): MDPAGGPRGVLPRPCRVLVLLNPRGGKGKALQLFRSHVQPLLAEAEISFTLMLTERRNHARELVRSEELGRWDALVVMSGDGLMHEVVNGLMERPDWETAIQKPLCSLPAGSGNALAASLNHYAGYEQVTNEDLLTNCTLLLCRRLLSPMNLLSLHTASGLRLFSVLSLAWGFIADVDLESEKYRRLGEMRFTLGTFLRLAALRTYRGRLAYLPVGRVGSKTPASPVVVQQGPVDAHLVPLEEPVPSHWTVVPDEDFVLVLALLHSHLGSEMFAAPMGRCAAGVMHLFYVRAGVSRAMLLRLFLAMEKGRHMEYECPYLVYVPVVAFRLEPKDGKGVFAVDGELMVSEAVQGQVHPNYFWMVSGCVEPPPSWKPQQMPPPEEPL

Compound: N[C@H]1CN[C@H](CCCCCCCCCCCOCC2CCCCC2)[C@H]1O
IC50 [1]: 46.3 µM

Compound: N[C@H]1CN[C@H](CCCCCCCCCCOCC2CCCCC2)[C@H]1O
IC50 [1]: 51.2 µM

Compound: N[C@H]1CN[C@H](CCCCCCCCCOCc2ccccc2)[C@H]1O
IC50 [1]: 15.1 µM

Compound: Cc1ccc(-c2cc(C(F)(F)F)nn2-c2ccc(S(N)(=O)=O)cc2)cc1
Activity (Rattus norvegicus [2]): Active
Activity (Rattus norvegicus [3]): Active
Activity (Rattus norvegicus [4]): Active
Activity (Rattus norvegicus [5]): Active
Activity (Rattus norvegicus [6]): Active
Activity (Rattus norvegicus [7]): Active
Activity (Rattus norvegicus [8]): Active
Activity (Rattus norvegicus [9]): Active
Activity (Rattus norvegicus [10]): Active
Activity (Rattus norvegicus [11]): Active

Compound: CC(OCCCCCCCCCC[C@H]1NC[C@H](N)[C@@H]1O)c1ccccc1 (some centres not stated)
IC50 [1]: 24.8 µM

Compound: N[C@H]1CN[C@H](CCCCCCCCCCOO)[C@H]1O
IC50 [1]: 116 µM

Compound: CC(OCCCCCCCCCC[C@H]1NC[C@H](N)[C@@H]1O)c1ccc(F)cc1 (some centres not stated)
IC50 [1]: 18.9 µM

Compound: CCCCCCCCCCCCCC[C@H]1NC[C@H](N)[C@@H]1O [listing 3 of 3 here]
Activity (Rattus norvegicus [12]): Active
Activity (HFLS-RA [13]): Dose-dependent effect
Activity (HFLS-RA [14]): Dose-dependent effect
Activity (HFLS-RA [15]): Dose-dependent effect
Activity (HFLS-RA [16]): Dose-dependent effect
Activity (Rattus norvegicus [17]): Active
Activity (Rattus norvegicus [18]): Active
Activity (Rattus norvegicus [19]): Active
Activity (Rattus norvegicus [20]): Active
Activity (Rattus norvegicus [21]): Active
Activity (Rattus norvegicus [22]): Active
Activity (Rattus norvegicus [23]): Active
Activity (Rattus norvegicus [24]): Active
Activity (Rattus norvegicus [25]): Active
Activity (Rattus norvegicus [26]): Active

Compound: CCCCCCCCCCCC[C@H]1NC[C@H](N)[C@@H]1O
IC50 [1]: 94.8 µM

Compound: N[C@H]1CN[C@H](CCCCCCCCCOCC2CCCCC2)[C@H]1O
IC50 [1]: 99.7 µM

Compound: CC(C)COCCCCCCCCCC[C@H]1NC[C@H](N)[C@@H]1O
IC50 [1]: 18.1 µM

Compound: N[C@H]1CN[C@H](CCCCCCCCCCOCc2ccc(C(F)(F)F)cc2)[C@H]1O
IC50 [1]: 19.6 µM

The next lines start with the values.

IC50 [1]: 10.2 µM
Compound: N#Cc1ccc(COCCCCCCCCCC[C@H]2NC[C@H](N)[C@@H]2O)cc1

IC50 [1]: 14.3 µM
Compound: COc1ccc(COCCCCCCCCCC[C@H]2NC[C@H](N)[C@@H]2O)c(OC)c1

IC50 [1]: 8.64 µM
IC50 (Sphingosine kinase 1): 8.89 µM
IC50 (Sphingosine kinase 2): > 100 µM
Compound: CCCCCCCCCCCCCC[C@H]1NC[C@H](N)[C@@H]1O [listing 1 of 3 here]

IC50 [1]: 11.2 µM
Compound: N[C@H]1CN[C@H](CCCCCCCCCCCOC2CCOCC2)[C@H]1O

IC50 [1]: 5.48 µM
Compound: CN(Cc1cnc2nc(N)nc(N)c2n1)c1ccc(C(=O)N[C@@H](CCC(=O)O)C(=O)O)cc1 [METHOTREXATE]

IC50 [1]: 10.7 µM
Compound: N[C@H]1CN[C@H](CCCCCCCCCCOCc2ccc(F)cc2)[C@H]1O

IC50 [1]: 10.7 µM
IC50 (Sphingosine kinase 1): > 100 µM
IC50 (Sphingosine kinase 2): > 100 µM
Compound: CCCCCCCCCCCCCC[C@H]1NC[C@H](N)[C@@H]1O [listing 2 of 3 here]

IC50 [1]: 11.4 µM
Compound: Cc1c(F)c(F)c(COCCCCCCCCCC[C@H]2NC[C@H](N)[C@@H]2O)c(F)c1F
